# Patent publication US8470870B2, “Solid forms of an anti-HIV phosphoindole compound” (Idenix Pharmaceuticals, Inc., priority 2008, dated 2013)
# What was measured:
# [1] = Solubility in recrystallization solvents (Panel 1); assay type: physicochemical; conditions: organic solvent or mixture, thermodynamic from solid, saturation temp. 25 °C
# Experimental: Milligram size quantities of each sample were placed into a vial. Solvent was added and the vials were vortexed for a few minutes, followed by visual observation for remaining solids. The solvent was incrementally added until the solids were dissolved, or a maximum volume of solvent was added and the experiment was terminated. Parallel to that, a suspension is made and filtered, the solids was examined by XRD to determine if a phase transformation occurs. Saturated solutions were prepared by agitating excess test material in contact with the various solvent systems at the saturation temperature. The mother liquor was separated from the residual solids by filtration. The mother liquor was then heated above the saturation temperature (overheated) to dissolve any remaining solids. The temperature of the solutions was then adjusted to the growth temperature and a controlled nitrogen shear flow was introduced to begin solvent evaporation.
# [2] = Hydration experiment at 95% RH; assay type: physicochemical; conditions: 18 days
# Experimental: Hydration experiments were performed on (2-carbamoyl-5-chloro-1H-indol-3-yl)-[3-((E)-2-cyano-vinyl)-5-methyl-phenyl]-(R)-phosphinic acid methyl ester Form III sample. A known weight of sample was exposed to a 95% RH environment using a saturated solution of […].
# Annealing experiment = assay type: physicochemical; conditions: 14 days at 46° C.
# Experimental: In addition to the solvent recrystallization experiments and slurry experiments, annealing experiments were performed. These experiments entailed looking for structural changes as a function of temperature. This was accomplished by using variable-temperature XRD, and variable temperature ovens, and DSC experiments.
# [3] = Non-competitive slurry experiments in neat solvents; assay type: physicochemical
# Experimental: Noncompetitive slurry experiments were performed. These experiments rely on solubility differences of different polymorphic forms (if the compound exists in different polymorphic forms). […] Essentially, when a solid is dissolved in a (slurry) solvent, a saturated solution eventually results. The solution is saturated with respect to the polymorphic form dissolved. […] In addition, noncompetitive slurry experiments are often useful in identifying solvents that form solvates with the compound. […] The solids were mechanically filtered and analyzed by XRD to determine the resulting form. To avoid possible desolvation or physical change after isolation, the samples were not subjected to drying before X-ray analysis.
# [4] = Competitive slurry experiments; assay type: physicochemical
# Experimental: Competitive slurry experiments were performed by mixing excess amounts of the polymorphic forms together in different solvents and agitating isothermally. These types of slurry experiments were used in attempts to determine which phase is more thermodynamically stable under the conditions used. Slurry experiments were generally used to examine the energy relationship between Form I and Form IX, and to examine how these two forms may interconvert with the monohydrate (Form VIII).
# [5] = Apparent kinetic solubility in 2-butanol of different crystalline forms; assay type: physicochemical; conditions: dry 2-butanol; for relative solubility among Forms I, VIII and IX: ambient temperature; for Apparent Kinetic Solubility: 25° C.
# Experimental: Milligram size quantities of each sample were placed into a vial. Solvent was added and the vials were vortexed for a few minutes, followed by visual observation for remaining solids. The solvent was incrementally added until the solids were dissolved, or a maximum volume of solvent was added and the experiment was terminated. Parallel to that, a suspension is made and filtered, the solids was examined by XRD to determine if a phase transformation occurs. Solubility experiments were performed to determine the solubility of the different polymorphic forms. […] Solubility data were collected on polymorphs I, VIII, and IX. Two of the forms were anhydrous and one was hydrated. […] Excess solids were placed in a test tube, solvent was then added in the tube, vortexed, and examined visually to determine if all the solids had dissolved. Attempts were made to prepare saturated or nearly saturated solutions of each polymorphic form by exposing excess solids of each polymorph to dry 2-butanol.
# [6] = Solubility in water (preliminary, in words); assay type: physicochemical
# Experimental: Milligram size quantities of each sample were placed into a vial. Solvent was added and the vials were vortexed for a few minutes, followed by visual observation for remaining solids. The solvent was incrementally added until the solids were dissolved, or a maximum volume of solvent was added and the experiment was terminated. Parallel to that, a suspension is made and filtered, the solids was examined by XRD to determine if a phase transformation occurs. Solubility experiments were performed to determine the solubility of the different polymorphic forms. […] Solubility data were collected on polymorphs I, VIII, and IX. Two of the forms were anhydrous and one was hydrated.
# [7] = Form I/Form VIII competitive slurry in water-methanol mixtures; assay type: physicochemical
# Experimental: Additional competitive slurry experiments were performed by mixing excess amounts of polymorphic forms in a solvent system and agitating the mixture isothermally. The competitive slurry experiments were used in attempts to identify the critical water activity levels for the interconversion of Form I (anhydrate target form) and Form VIII (monohydrate form). This was used to identify the water content range that can be used during processing to successfully isolate Form I in a reproducible manner. In each competitive slurry experiment, an excess of Form I and Form VIII of known weight was added to a water-methanol mixture. The suspension was slurred at ambient temperature (22° C.) or 45° C. continuously for up to 12 days in order to obtain thermodynamic equilibrium. Excess solids were collected at different slurry times by centrifugation, and then characterized by XRD. To avoid possible desolvation or physical change after isolation, the samples were not subjected to drying before X-ray analysis.
# [8] = tested on: several serine proteases like S. griseus proteases A and B, α-chymotrypsin, chymase, and subtilisin; conditions: cited from earlier work
compound,measurement,setting,value
"CO[P@](=O)(c1cc(C)cc(/C=C/C#N)c1)c1c(C(N)=O)[nH]c2ccc(Cl)cc12 [compound of Formula I, (2-carbamoyl-5-chloro-1H-indol-3-yl)-[3-((E)-2-cyano-vinyl)-5-methyl-phenyl]-(R)-phosphinic acid methyl ester]",solubility,[1]; 1-propanol,~2670 µg/mL
same,solubility,[1]; 2-butanol,< 2670 µg/mL
same,solubility,[1]; 2-propanol,< 2670 µg/mL
same,solubility,[1]; ethanol,3640 µg/mL
same,solubility,[1]; methanol,10000 µg/mL
same,solubility,[1]; nitromethane,5710 µg/mL
CO[P@](=O)(c1cc(C)cc(/C=C/C#N)c1)c1c(C(N)=O)[nH]c2ccc(Cl)cc12 [Form III],XRD pattern after exposure to humidity,[2],no changes in XRD pattern
same,XRD pattern after annealing,Annealing experiment,no change in the XRD pattern
same,form after slurry (ripening) in methanol,"[3]; neat methanol, about 1 day, ambient temperature",converted to Form I
same,form after non-competitive slurry in water,"[3]; water, 3 days",resulted in Form VIII
"COP(=O)(c1cc(C)cc(/C=C/C#N)c1)c1c(C(N)=O)[nH]c2ccc(Cl)cc12 (stereo not shown) [Form IX, (2-carbamoyl-5-chloro-1H-indol-3-yl)-[3-((E)-2-cyano-vinyl)-5-methyl-phenyl]phosphinic acid methyl ester]",thermodynamic stability among forms,[4]; ambient temperature and pressure,most stable form
same,form after slurry in water,"[4]; water, several days",remained unchanged
same,solubility kinetic,"[5]; 25 °C, organic solvent or mixture, thermodynamic from solid",160 µg/mL
same,"relative solubility among Forms I, VIII and IX",[5],lowest solubility
"CO[P@](=O)(c1cc(C)cc(/C=C/C#N)c1)c1c(C(N)=O)[nH]c2ccc(Cl)cc12 [Form I, (2-carbamoyl-5-chloro-1H-indol-3-yl)-[3-((E)-2-cyano-vinyl)-5-methyl-phenyl]-(R)-phosphinic acid methyl ester]",solubility in water,[6],practically insoluble
same,Apparent Kinetic Solubility,[5]; listed as I,1810 µg/mL
same,"relative solubility among Forms I, VIII and IX",[5],highest solubility
same,XRD pattern after slurry in water,"[3]; water, ambient temperature and 50° C., up to 6 days",did not show changes in XRD pattern
same,water content level needed to stabilize Form I (anhydrate),[7],≤ 24 wt %
"CO[P@](=O)(c1cc(C)cc(/C=C/C#N)c1)c1c(C(N)=O)[nH]c2ccc(Cl)cc12 [Form VIII, (2-carbamoyl-5-chloro-1H-indol-3-yl)-[3-((E)-2-cyano-vinyl)-5-methyl-phenyl]-(R)-phosphinic acid methyl ester]",critical water activity level for Form I/Form VIII interconversion,[4]; methanol/water bridging experiments,40-60 vol % water
same,Apparent Kinetic Solubility,[5]; listed as VIII,310 µg/mL
Eglin c,potency of inhibition,[8],nanomolar potency inhibition
